Here are results for 55 compounds from patent US20090118135A1, “METHODS AND COMPOUNDS FOR REGULATING APOPTOSIS” (The Burnham Institute, priority 2007, published 2009).

The target in the assay is T1, GST-Bfl-1 (Homo sapiens, UniProt Q16548).
T1 construct: lacking their C-terminal transmembrane domains (about the last 20 amino acids) (“ΔTM”); made in house; host or cells: XL-1 Blue E. coli, pGEX 4T-1
T1 sequence (Q16548 1-155 limits assumed): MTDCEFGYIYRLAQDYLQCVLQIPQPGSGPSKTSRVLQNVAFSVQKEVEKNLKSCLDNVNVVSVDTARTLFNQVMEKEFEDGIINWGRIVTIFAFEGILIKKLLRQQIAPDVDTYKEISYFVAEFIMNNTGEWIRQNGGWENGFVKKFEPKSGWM
In words: Bfl-1/FITC-Bid BH3 competitive fluorescence polarization assay. The assay is classed as binding. Particulars: primary HTS hits, MLSCN library (PubChem SIDs), Table 5B. A general note: In fluorescence polarisation assays a small probe gives low polarisation when free and higher when bound to something large.
With `Cc1ccc(-n2nc3ccc(NC(=O)c4ccc5c(c4)OCO5)cc3n2)cc1` [Compound 14732083], the “% Activity” value is listed as 69.5% and the FRatio was 0.83.
The corresponding values for `Cc1ccc(C(=O)ONc2ccc(/N=N/C(=O)c3ccccc3O)cc2)cc1` [Compound 14732345] are 108.7% and 0.83.
For `O=C(Cc1cnn(-c2ccccc2)c1)c1ccc(O)c(O)c1O` [Compound 14732615] the same measures were 57.8% and 0.74.
The corresponding values for `CCc1ccc(NC(=O)c2noc3c2CCC3)cc1` [Compound 14733222] are 68.1% and 0.73.
`Cc1ccc(S(=O)(=O)Cc2ccc(C(=O)N3CCc4ccccc4C3)o2)cc1` [Compound 14733336]: the “% Activity” value is 60.8% and the FRatio is 0.93.
The corresponding values for `CCS(=O)(=O)NCc1ccc2c(c1)cc(C)n2C` [Compound 14733498] are 51.8% and 1.
For `COc1ccc(NC(=O)c2noc3c2CCC3)cc1` [Compound 14733727] the same measures were 102.1% and 0.93.
In the case of `CCc1ccccc1NC(=O)c1cc2ncc(Br)cn2n1` [Compound 14733824], the “% Activity” value was 74.2% and the FRatio came to 0.79.
For `CCOc1cc(/C=C2\C(=O)N(c3nc(-c4ccc(Br)cc4)cs3)N=C2c2ccccc2)ccc1O` [Compound 14733887], the “% Activity” value worked out at 68.2% and the FRatio is on record as 0.76.
The corresponding values for `CC1CC(C)CN(C(=O)c2ccc3c(c2NCCO)C(=O)c2ccccc2C3=O)C1` (centres unmarked) [Compound 14734023] are 83.7% and 0.97.
For the compound `Cc1ccc(NC(=O)Nc2cccs2)c(Cl)c1` [Compound 14734202], the “% Activity” value worked out at 66.3% and the FRatio is recorded as 1.39.
In the case of `Cc1cc(OCC(=O)Nc2ccc(N3CCCC3)cc2)cc(C)c1Cl` [Compound 14734365], the “% Activity” value came out at 59.3% and the FRatio is 0.71.
For `CCC1=[N+](C)CCn2c(C)ccc21` [Compound 14734567] the same measures were 57.1% and 1.
The corresponding values for `CN(C)S(=O)(=O)N(CC(=O)N(Cc1ccccc1)Cc1ccccc1)c1ccccc1` [Compound 14736293] are 90.4% and 0.73.
As to `CCOC(=O)c1ccc(NC2=CC(=O)C(=O)c3ccccc32)cc1` [Compound 14737410], the “% Activity” value amounted to 89.5% and the FRatio was 1.15.
The corresponding values for `Cc1ccc(S(=O)(=O)Cc2ccc(C(=O)O)o2)cc1` [Compound 14737647] are 66.5% and 0.86.
For `CN(C)c1ccc(NC(=O)CN2C(=O)CN=C(c3ccccc3)c3cc(Cl)ccc32)cc1` [Compound 14738707] the same measures were 66.4% and 0.84.
`COc1ccc(C(=O)Nc2ccc(N3CCCC3)cc2)cc1` [Compound 14739290]: the “% Activity” value worked out at 78.8% and the FRatio stood at 0.85.
`O=C(Cc1ccccc1)Nc1ccc(N2CCCC2)cc1` [Compound 14739360]: the “% Activity” value was found to be 59.1% and the FRatio came out at 0.93.
As for `CC(=O)c1ccc(NC(=O)c2ccc3nc(-c4ccco4)c(-c4ccco4)nc3c2)cc1` [Compound 14740115], the “% Activity” value amounted to 59.5% and the FRatio worked out at 0.97.
For `CCC1=NNc2cccc3c(OC)ccc1c23` [Compound 14740154] the same measures were 83.6% and 1.
The corresponding values for `CC(=O)Nc1ccc(S(=O)(=O)/N=C2/C(=O)c3ccccc3C(O)=C2N2CCN(Cc3ccccc3)CC2)cc1` [Compound 14742166] are 50.6% and 0.73.
For `Cc1ccc2c(c1)c(=O)c1c3n2CCN(C(=O)CCl)C3CC1` (centres unmarked) [Compound 14742276] the same measures were 72.4% and 0.88.
`Cc1ccccc1NC(=O)CSc1nnc(-c2ccco2)c(-c2ccco2)n1` [Compound 14742395]: the “% Activity” value is reported as 56.3% and the FRatio came out at 1.09.
For `Cc1c(CN(C)C)c2c(n1Cc1ccccc1)C(=O)c1ccc(Br)cc1-2` [Compound 14742663] the same measures were 78.5% and 0.61.
The corresponding values for `CSc1nc2n(n1)C(c1ccccn1)C1=C(O)CC(C)(C)CC1=N2` (centres unmarked) [Compound 14742716] are 61.8% and 0.84.
For `O=C(Nc1cccnc1)c1ccc(S(=O)(=O)N2CCCCCC2)cc1` [Compound 14744015] the same measures were 88.4% and 0.84.
Turning to `O=C(COC(=O)Cc1ccccc1)Nc1ncc(Cl)cc1Cl` [Compound 14744122], the “% Activity” value was determined as 58.8% and the FRatio is 1.03.
The corresponding values for `O=C(COC(=O)CC12CC3CC(CC(C3)C1)C2)Nc1ncc(Cl)cc1Cl` [Compound 14744137] are 52% and 1.16.
As to `O=C(COC(=O)C1CCN(S(=O)(=O)c2cc([N+](=O)[O-])ccc2Cl)CC1)Nc1ncc(Cl)cc1Cl` [Compound 14744641], the “% Activity” value is reported as 75.9% and the FRatio was 0.93.
For the compound `O=C(Nc1ccccc1N1CCOCC1)c1cc(-c2ccco2)nc2ccccc12` [Compound 14744733], the “% Activity” value turned out to be 61.4% and the FRatio was determined as 0.83.
`Cc1cnnn1-c1ccc(C(=O)CCl)cc1` [Compound 14744853]: the “% Activity” value came out at 52.9% and the FRatio is 0.82.
Turning to `Cc1cc(N)ccc1N1CCCC1` [Compound 14744983], the “% Activity” value amounted to 86.5% and the FRatio came out at 0.71.
The corresponding values for `O=C(c1cc2c(s1)CCC2)N1CCN(c2ccccc2)CC1` [Compound 14745443] are 71.6% and 0.73.
`O=C(OCC(=O)N1CCN(C(=O)c2ccco2)CC1)c1cc(-c2ccco2)nc2ccccc12` [Compound 14745657]: the “% Activity” value stood at 73.4% and the FRatio amounted to 0.97.
The corresponding values for `Cc1ccc(-[n+]2c(-c3ccc(Br)cc3)cn3c2CCc2ccc4cccnc4c2-3)cc1` [Compound 14745910] are 56.2% and 0.81.
Regarding `COc1cccc(N2CCN(Cc3ccsc3)CC2)c1` [Compound 14746122], the “% Activity” value came out at 56.1% and the FRatio came to 0.85.
Turning to `Oc1ccc(-c2cn3c(n2)SCC3)cc1O` [Compound 14746201], the “% Activity” value came out at 77.7% and the FRatio is 0.91.
For `Cc1csc(N/N=C/c2ccc(O)c([N+](=O)[O-])c2)n1` [Compound 14746238] the same measures were 57.1% and 0.84.
For `O=C(C[n+]1ccc(C(=O)N/N=C/c2ccc(O)cc2)cc1)c1ccccc1` [Compound 14746260] the same measures were 57.9% and 0.72.
The corresponding values for `CC(=O)c1c(CC(=O)O)nn(-c2nc3ccccc3s2)c1O` [Compound 14746319] are 69% and 0.7.
Consider `Cc1cc(C)c(NC(=O)CN(c2ccccc2)S(=O)(=O)N(C)C)c(C)c1` [Compound 14746364], for which the “% Activity” value was found to be 90.5% and the FRatio stood at 0.65.
For `O=[N+]([O-])c1cc(/C=N/Nc2nccs2)ccc1O` [Compound 14746394], the “% Activity” value is given as 107% and the FRatio was found to be 0.75.
The corresponding values for `CCC(=O)Nc1cccc(NC(C)=O)c1` [Compound 14746435] are 92.4% and 0.85.
The corresponding values for `COc1cc2c(C#N)c(N3CCN(C)CC3)nc(N)c2c(N)n1` [Compound 14746488] are 51.4% and 0.92.
The corresponding values for `Cc1cc(-c2csc(N)n2)c(C)n1C` [Compound 14746541] are 69.5% and 0.94.
Turning to `COc1ccccc1N1CCN(C(=O)c2cc3c(s2)CCC3)CC1` [Compound 14746697], the “% Activity” value is listed as 74.1% and the FRatio is on record as 0.9.
Regarding `Cc1ccc2c(Cl)cc(Cl)c(OCC(=O)NCc3ccco3)c2n1` [Compound 14747102], the “% Activity” value is 56.5% and the FRatio was determined as 0.8.
For `Cc1cc[n+]2c3c(cccc13)CCC2` [Compound 14748512], the “% Activity” value came out at 76.6% and the FRatio was found to be 0.76.
For the compound `CCCCNC(=O)COC(=O)c1ccc(Cl)c(S(=O)(=O)N2CCCC2)c1` [Compound 16952426], the “% Activity” value came to 54.8% and the FRatio was 0.92.
The corresponding values for `C[C@@H](C(=O)Nc1nc(-c2ccccn2)cs1)N1C(=O)C2CCCCC2C1=O` (some centres unmarked) [Compound 16952892] are 51.1% and 1.04.
The corresponding values for `Cc1ccc(/N=N/c2ccc(O)c(/C=N/NC(=O)c3ccc(N)cc3)c2)cc1C` [Compound 16952937] are 91.7% and 0.71.
In the case of `Cc1cc(C)c(I)c(S(=O)(=O)N2CCC(C(=O)OCC(=O)N3c4ccccc4NC(=O)C3(C)C)CC2)c1C` [Compound 16952989], the “% Activity” value is recorded as 72.9% and the FRatio was 0.93.
For `COc1ccc(S(=O)(=O)N2Cc3ccccc3CC2C(=O)O)cc1` (centres unmarked) [Compound 16953199] the same measures were 53% and 0.85.
The corresponding values for `O=C(COC(=O)c1ccc(S(=O)(=O)NCc2ccco2)cc1)NCC1CCCCC1` [Compound 16953469] are 60.3% and 1.01.
